# Values of other authors as cited in patent publication US5659037A, “Process for preparing chiral tetracyclic dopaminergic compounds” (Abbott Laboratories, priority 1995, dated 1997).
# What was measured:
# dopamine D1 = conditions: Nichols U.S. Pat. No. 5,047,536; WO 93/24462; Brewster et al. (1990)
# adenylate cyclase = conditions: Knoerzer et al., J. Med. Chem., 37:2453-60 (1994)
# [1] = Seeman, Pharmacol. Rev. 32:2:229 (1980)
smiles,measurement,setting,value
"Oc1cc2c(cc1O)[C@@H]1c3ccccc3CN[C@H]1CC2 (relative stereo) [dihydrexidine, trans-10,11-dihydroxy-5,6,6a,7,8,12b-hexahydrobenzo[a]phenanthridine]",dopamine D1 agonist activity,dopamine D1,potent and selective dopamine D1 agonists
Cc1ccc2c(c1)[C@@H]1c3cc(O)c(O)cc3CC[C@H]1NC2 (relative stereo) [2-methyl derivative],dopamine D1 agonist activity,dopamine D1,potent and selective dopamine D1 agonists
"Oc1cc2c(cc1O)[C@@H]1c3ccccc3CN[C@H]1CC2 [6aS,12bR-(-)-isomer]",activity in an adenylate cyclase assay,adenylate cyclase,inactive
"NC1CCc2cc(O)c(O)cc2C1 (stereo not shown) [ADTN, 2-amino-6,7-dihydroxy-1,2,3,4-tetrahydronaphthalene]",dopamine agonist activity,[1],greatest activity in its chiral (R)-(+)-isomeric form
